Results on 55 compounds are retold here after ChEMBL document CHEMBL1145437, “Synthesis and biological evaluation of N-acetyl-beta-aryl-1,2-didehydroethylamines as new HIV-1 RT inhibitors in vitro” (Bioorg Med Chem Lett, 2007).

One may read the inhibition as the drop in the measured response relative to a control, in per cent. Read a high inhibition as strong suppression. The term IC50 denotes the concentration that inhibits the measured activity by half. The low end stands for greater potency in that assay, the high end for weaker potency in that assay. For orientation: CC50 means the concentration at which the toxic effect on the cells reaches its halfway point. By EC50 is commonly meant the concentration that produces a half-maximal response.

For series [1], the system named is Human immunodeficiency virus 1. Briefly: Inhibition of HIV1 reverse transcriptase at 200 ug/mL.
Series [2] can be described thus: Inhibition of HIV1 reverse transcriptase. Details: species or system Human immunodeficiency virus 1.
A short description of series [3]: Cytotoxicity in human C8166 cells. In kind it is cell-based.
Series [4] relates to Human immunodeficiency virus 1. Briefly: Antiviral activity against HIV1 assessed as syncytium reduction. In kind it is functional, organism-based.
Series [5] is described as follows: Therapeutic index, Ratio of CC50 for human C8166 cells to EC50 for HIV1. The format is cell-based. The note with it: read-out: TI.
Series [6] has as its system Human immunodeficiency virus 1. Briefly: Inhibition of HIV1 reverse transcriptase at 20 ug/mL.

The source made the active and inactive calls. The rule behind the calls is not given here.

With `COc1ccc(/C=C/[N+](=O)[O-])c(OC)c1`, in series [1], the inhibition was 86.3%. This compound also yielded an IC50 in series [2] of 553 µM. In series [3], the CC50 was 5.4 µM.

Turning to `CC(=O)N/C=C/c1ccc(F)cc1`, in series [1], the result was inactive.

On to `CC(=O)N(C)/C=C/c1ccccc1F`, for which the inhibition in series [1] is 61.7%. In addition, the EC50 in series [4] came out at 119 µM. The IC50 in series [2] worked out at 477 µM. The same compound came in with a cytotoxic concentration (CC50) in series [3] of 667 µM. For the same compound, the selectivity ratio in series [5] is 5.6.

In series [1], `CC(=O)N(C)/C=C/c1ccccc1Br` returned an inhibition of 85.3%. Also, the EC50 in series [4] worked out at 59.8 µM. In series [2], this compound came in with an IC50 of 339 µM. Besides, the CC50 in series [3] was more than 787 µM. In addition, in series [5], the selectivity ratio was more than 13.2.

With `COc1ccccc1/C=C/NC(C)=O`, the outcome in series [1] was inactive.

As to `COc1cc(OC)c(OC)cc1/C=C/NC(C)=O`, the outcome in series [1] was inactive.

In series [1], `O=[N+]([O-])/C=C/c1ccccc1` [(2-NITROVINYL)BENZENE] registered an inhibition of 99.7%. In series [2], this compound registered an IC50 of 87.9 µM. The half-maximal cytotoxic concentration (CC50) in series [3] is 13.6 µM.

As to `COc1cc(OC)c(OC)cc1/C=C/[N+](=O)[O-]`, the inhibition in series [1] was 49.1%. In series [2], this compound returned an IC50 of more than 837 µM. This compound displayed a CC50 in series [3] of 4.7 µM.

Consider `O=[N+]([O-])/C=C/c1ccc(F)cc1`, for which the inhibition in series [1] is 22.9%.

In the case of `COc1ccc(/C=C/NC(C)=O)cc1`, in series [1], the outcome was inactive.

Regarding `O=[N+]([O-])/C=C/c1ccc(O)cc1`, the inhibition in series [1] came to 96.4%. This compound showed an IC50 in series [2] of 553 µM. In series [3], this compound displayed a CC50 of 15.8 µM.

As to `CC(=O)N(C)/C=C/c1ccc(Br)cc1`, the result in series [1] was inactive.

Compound `O=[N+]([O-])/C=C/c1ccsc1` displayed an inhibition in series [1] of 86.2%. Further, half-maximal inhibition in series [2] (IC50) required 709 µM. The compound further registered a CC50 in series [3] of 25.5 µM.

Consider `Cc1ccccc1/C=C/[N+](=O)[O-]`, for which the inhibition in series [1] turned out to be 99.2%. The same compound yielded an IC50 in series [2] of 261 µM. In series [3], the CC50 turned out to be 7.4 µM.

`CC(=O)N/C=C/c1cc(C)c(C)cc1C` registered an inhibition in series [1] of 25.4%.

Compound `CC(=O)N/C=C/c1ccc(C)cc1` registered an inhibition in series [1] of 16.6%.

In series [1], `CC(=O)N(C)/C=C/c1ccccc1C` displayed an inhibition of 79.8%. Further, the EC50 in series [4] was determined as 116 µM. In series [2], this compound gave an IC50 of 487 µM. The same compound had a CC50 in series [3] of 609 µM. Besides, the selectivity ratio in series [5] came out at 5.2.

Compound `Cc1ccc(/C=C/[N+](=O)[O-])cc1` registered an inhibition in series [1] of 36.9%. The compound also showed a CC50 in series [3] of 15.2 µM.

Compound `CC(=O)N/C=C/c1ccccc1Cl` registered an inhibition in series [1] of 34%. Moreover, the EC50 in series [4] was determined as 124 µM. The same compound registered a CC50 in series [3] of 297 µM. In series [5], the selectivity ratio amounted to 2.4.

On to `CC(=O)N/C=C/c1ccsc1`, for which the outcome in series [1] was inactive.

Regarding `COc1ccccc1/C=C/[N+](=O)[O-]`, the inhibition in series [1] stood at 99.7%. In series [2], this compound gave an IC50 of 225 µM. For the same compound, in series [3], the midpoint of cytotoxicity, the CC50, lay at 5 µM.

In the case of `CC(=O)N/C=C/c1ccccc1F`, the inhibition in series [1] is 36.2%. The EC50 in series [4] was determined as 383 µM. The same compound showed a CC50 in series [3] of 341 µM. For the same compound, the selectivity ratio in series [5] is less than 1.

Regarding `O=[N+]([O-])/C=C/c1ccc2ccccc2c1`, the inhibition in series [1] worked out at 58.8%. The same compound had an IC50 in series [2] of 935 µM. In series [3], this compound registered a CC50 of 40.6 µM.

In turn, `O=[N+]([O-])/C=C/c1ccccc1F` came in with an inhibition in series [1] of 95.4%. Besides, the IC50 in series [2] turned out to be 365 µM. For the same compound, in series [3], the CC50 was 2.8 µM.

As for `CC(=O)N/C=C/c1ccc(Br)cc1`, the result in series [1] was inactive.

Turning to `CC(=O)N/C=C/c1ccco1`, in series [1], the result was inactive.

As to `CC(=O)N/C=C/c1cccc(Cl)c1`, the inhibition in series [1] was 10.7%.

In turn, `COc1ccc(/C=C/[N+](=O)[O-])cc1` gave an inhibition in series [1] of 93.5%. Moreover, half-maximal inhibition in series [2] (IC50) required 561 µM. Further, the CC50 in series [3] stood at 6.3 µM.

Regarding `O=[N+]([O-])/C=C/c1ccccc1Cl`, the inhibition in series [1] is 99.3%. Moreover, the IC50 in series [2] is 361 µM. This compound came in with a CC50 in series [3] of 3 µM.

`CC(=O)N(C)/C=C/c1ccccc1Cl` returned an inhibition in series [1] of 75.2%. The EC50 in series [4] was 95.9 µM. In series [2], this compound came in with an IC50 of 434 µM. This compound showed a CC50 in series [3] of 441 µM. Moreover, in series [5], the selectivity ratio is 4.6.

Regarding `CC(=O)N/C=C/c1cccc(Br)c1`, the inhibition in series [1] came to 41.5%. Besides, in series [4], the EC50 was 89.3 µM. The same compound yielded a CC50 in series [3] of 134 µM. In series [5], the selectivity ratio stood at 1.5.

In turn, `O=[N+]([O-])/C=C/c1cccc2ccccc12` gave an inhibition in series [1] of 81.4%. In series [2], this compound had a half-inhibitory concentration (IC50) of 786 µM. Moreover, half-maximal cytotoxicity in series [3] (CC50) was put at 39.6 µM.

Consider `CC(=O)N/C=C/c1cccc2ccccc12`, for which the inhibition in series [1] was 26.5%.

With `CC(=O)N/C=C/c1ccccc1Br`, the inhibition in series [1] is 54.4%. In series [4], the EC50 was determined as 134 µM. Further, half-maximal cytotoxicity in series [3] (CC50) was put at 241 µM. Moreover, the selectivity ratio in series [5] is 1.8.

`O=[N+]([O-])/C=C/c1ccc(Br)cc1` displayed an inhibition in series [1] of 20.3%. Moreover, in series [3], the midpoint of cytotoxicity, the CC50, lay at 13.6 µM.

Regarding `O=[N+]([O-])/C=C/c1ccccc1O`, the inhibition in series [1] is 98.2%. The compound further came in with an IC50 in series [2] of 540 µM. In series [3], this compound registered a CC50 of 18.8 µM.

Consider `O=[N+]([O-])/C=C/c1cccc(Br)c1`, for which the inhibition in series [1] was 13.4%.

On to `CC(=O)N/C=C/c1ccc(C(F)(F)F)cc1`, for which, in series [1], the outcome was inactive.

Regarding `Cc1cn([C@H]2C[C@H](N=[N+]=[N-])[C@@H](CO)O2)c(=O)[nH]c1=O` [ZIDOVUDINE], the EC50 in series [4] is 0.0108 µM. Besides, in series [3], the CC50 was more than 5090 µM. The selectivity ratio in series [5] was more than 471000.

In series [1], `CC(=O)N/C=C/c1ccc2ccccc2c1` returned an inhibition of 30.1%. Also, the EC50 in series [4] came to 49.7 µM. This compound also yielded a CC50 in series [3] of 154 µM. In addition, the selectivity ratio in series [5] is 3.1.

`O=[N+]([O-])/C=C/c1ccc(Cl)cc1` yielded an inhibition in series [1] of 19.8%.

As for `O=[N+]([O-])/C=C/c1ccccc1Br`, the inhibition in series [1] was determined as 95.7%. Further, the IC50 in series [2] stood at 202 µM. For the same compound, half-maximal cytotoxicity in series [3] (CC50) was put at 0.57 µM.

`O=[N+]([O-])/C=C/c1cccc(Cl)c1` returned an inhibition in series [1] of 49.8%. The IC50 in series [2] is more than 1090 µM. Also, the CC50 in series [3] stood at 4.6 µM.

For `CC(=O)N/C=C/c1ccc(O)cc1`, the outcome in series [1] was inactive.

`CC(=O)N(C)/C=C/c1cccc(Br)c1` displayed an inhibition in series [1] of 45.4%. The EC50 in series [4] was 128 µM. Also, it took 838 µM to reach half-maximal inhibition in series [2] (IC50). In addition, the CC50 in series [3] is 409 µM. Further, in series [5], the selectivity ratio was found to be 3.2.

With `CC(=O)N/C=C/c1ccccc1`, the inhibition in series [1] is 22.2%.

Take `O=[N+]([O-])/C=C/c1ccc(C(F)(F)F)cc1`: the inhibition in series [1] is 29.4%.

As to `O=C(O)P(=O)(O)O` [FOSCARNET], in series [2], the IC50 worked out at 1.3 µM. In addition, the inhibition in series [6] came out at 96.5%.

In the case of `O=[N+]([O-])/C=C/c1ccco1`, the inhibition in series [1] was 91.8%. In series [2], this compound came in with an IC50 of 465 µM. In series [3], this compound registered a CC50 of 28.9 µM.

Take `CC(=O)N/C=C\c1ccsc1`: the inhibition in series [1] worked out at 12%.

`Cc1cc(C)c(/C=C/[N+](=O)[O-])cc1C` showed an inhibition in series [1] of 31.5%. Besides, the CC50 in series [3] worked out at 6.9 µM.

Compound `CC(=O)N/C=C/c1ccccc1O` registered an inhibition in series [1] of 10.1%.

On to `COc1ccc(/C=C/NC(C)=O)c(OC)c1`, for which the outcome in series [1] was inactive.

For the compound `CC(=O)N/C=C/c1ccccc1C`, in series [1], the inhibition came to 40.1%. In series [4], the EC50 is 379 µM. The compound further registered a CC50 in series [3] of 385 µM. In series [5], the selectivity ratio stood at 1.

Take `CC(=O)N/C=C/c1ccc(Cl)cc1`: the result in series [1] was inactive.
